Assay results: patent US11214594B2, “Antimicrobial peptide having synergistic antibacterial effect with antibiotics on multidrug resistant bacteria, and use thereof” (priority 2016, dated 2022)
Converted amounts (≈) assume the structure as drawn. Like-named read-outs stand apart in the source and are kept apart here. Where a SMILES comes first, the peptide text is derived from it.

Experiments:
P. aeruginosa = assay: microbe, parasite or virus in culture; assay type: cell-based, Pseudomonas aeruginosa
How it was run: (§1)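 Broth microdilution in MH medium: bacterial strains diluted to 2×10^6 CFU were mixed with equal volumes of peptide serially diluted twofold in MH medium.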

MDRAB 12035 = assay: MIC of antimicrobial peptide during combined treatment with antibiotic; assay type: cell-based, Acinetobacter baumannii
How it was run: (§2)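 Broth microdilution in MH medium; strains were diluted to 2×10^6 CFU per ml before plating. Peptide was serially diluted stepwise at 2:1 starting from its MIC, and MH-diluted antibiotic was then added to determine MIC. The reversed arrangement was also tested.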

A. baumannii [1] = assay: as above; assay type: cell-based, Acinetobacter baumannii
How it was run: as §2

B. subtilis = assay: microbe, parasite or virus in culture; assay type: cell-based, Bacillus subtilis
How it was run: as §1

MDRST 8009 = assay type: cell-based, Salmonella typhimurium; conditions: agent alone
How it was run: as §1

A. baumannii [2] = assay: MIC of antibiotic during combined treatment with antimicrobial peptide; assay type: cell-based, Acinetobacter baumannii; conditions: for Antibiotic MIC, Erythromycin / Antibiotic MIC, Linezolid / Antibiotic MIC, Vancomycin: A. baumannii
How it was run: (§3)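 First, antibiotic solution is diluted with MH medium; next, the dilution is dispensed into wells containing peptide; finally, the orientation is swapped and MIC of each mixture determined.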

MDREC 1229 [3] = assay: microbe, parasite or virus in culture; assay type: cell-based, Escherichia coli
How it was run: as §1

E. coli [4] = assay: microbe, parasite or virus in culture; assay type: cell-based, Escherichia coli; conditions: 16 h
How it was run: as §1

MDREC 1229 [5] = assay: MIC of antibiotic during combined treatment with antimicrobial peptide; assay type: cell-based, Escherichia coli
How it was run: as §2

MDREC 1229 [6] = assay type: cell-based, Escherichia coli
How it was run: as §2

E. coli [7] = assay type: cell-based, Escherichia coli; conditions: E. coli
How it was run: as §2

E. coli [8] = assay: MIC of antibiotic during combined treatment with antimicrobial peptide; assay type: cell-based, Escherichia coli; conditions: for Antibiotic MIC, Erythromycin / Antibiotic MIC, Linezolid / Antibiotic MIC, Vancomycin: E. coli
How it was run: as §3

S. epidermidis = assay: microbe, parasite or virus in culture; assay type: cell-based, Staphylococcus epidermidis
How it was run: as §1

[9] = erythromycin 4 μg/ml (Conc./MIC 1/8)
[10] = erythromycin 8 μg/ml (Conc./MIC 1/4)
[11] = erythromycin 16 μg/ml (Conc./MIC 1/2)
[12] = erythromycin 32 μg/ml (Conc./MIC 1)
[13] = vancomycin 512 μg/ml (Conc./MIC 1/2)
[14] = vancomycin 1024 μg/ml (Conc./MIC 1)
[15] = combined with peptide at 1 μg/ml
[16] = combined with peptide at 2 μg/ml
[17] = combined with peptide at 4 μg/ml
[18] = combined with peptide at 6 μg/ml
[19] = combined with peptide at 8 μg/ml
[20] = combined with peptide at 16 μg/ml
[21] = combined with peptide at 32 μg/ml
[22] = combined with peptide at 64 μg/ml
[23] = peptide treatment concentration 1 μg/ml
[24] = peptide treatment concentration 2 μg/ml
[25] = peptide treatment concentration 4 μg/ml
[26] = peptide treatment concentration 6 μg/ml
[27] = peptide treatment concentration 8 μg/ml
[28] = peptide treatment concentration 16 μg/ml
[29] = peptide treatment concentration 32 μg/ml
[30] = peptide treatment concentration 64 μg/ml
[31] = with Erythromycin […] (Conc./MIC 1)

## CC[C@H](C)[C@H](NC(=O)[C@H](CCCCN)NC(=O)[C@H](Cc1c[nH]c2ccccc12)NC(=O)[C@@H](N)CCCNC(=N)N)C(=O)N[C@@H](Cc1ccccc1)C(=O)N[C@@H](CCCCN)C(=O)N[C@@H](CCCCN)C(=O)N[C@H](C(=O)N1CCC[C@H]1C(=O)N[C@@H](CCCCN)C(=O)N[C@@H](Cc1ccccc1)C(=O)N[C@@H](CC(C)C)C(=O)N[C@@H](Cc1c[nH]cn1)C(=O)N[C@@H](CO)C(=O)N[C@@H](Cc1ccccc1)C(=O)N[C@@H](CCCCN)C(=O)N[C@@H](CCCCN)C(=O)N[C@@H](Cc1ccccc1)C(N)=O)[C@@H](C)CC [PapMA-5, RWK IFK KIP KFL HSF KKF-NH2] (H-RWKIFKKIPKFLHSFKKF-NH2; N-terminus assumed)
P. aeruginosa
  Minimal inhibitory concentration MIC: 16 µg/mL (≈ 6.73 µM)
MDRAB 12035; [9]
  Peptide MIC during treatment with erythromycin: 4 µg/mL
MDRAB 12035; [10]
  Peptide MIC during treatment with erythromycin: 4 µg/mL
MDRAB 12035; [11]
  Peptide MIC during treatment with erythromycin: 4 µg/mL
MDRAB 12035; [12]
  Peptide MIC during treatment with erythromycin: 0 µg/mL
MDRAB 12035; linezolid 64 μg/ml (Conc./MIC 1/8)
  Peptide MIC during treatment with linezolid: 4 µg/mL
MDRAB 12035; linezolid 512 μg/ml (Conc./MIC 1)
  Peptide MIC during treatment with linezolid: 0 µg/mL
MDRAB 12035; linezolid […] (Conc./MIC 1/2)
  Peptide MIC during treatment with linezolid: 1 µg/mL
MDRAB 12035; linezolid […] (Conc./MIC 1/4)
  Peptide MIC during treatment with linezolid: 4 µg/mL
MDRAB 12035; [13]
  Peptide MIC during treatment with vancomycin: 2 µg/mL
MDRAB 12035; [14]
  Peptide MIC during treatment with vancomycin: 1 µg/mL
MDRAB 12035; vancomycin […] (Conc./MIC 1/4)
  Peptide MIC during treatment with vancomycin: 4 µg/mL
MDRAB 12035; vancomycin […] (Conc./MIC 1/8)
  Peptide MIC during treatment with vancomycin: 4 µg/mL
A. baumannii [1]; [9]
  Peptide MIC during treatment with antibiotic: 8 µg/mL
A. baumannii [1]; [10]
  Peptide MIC during treatment with antibiotic: 4 µg/mL
A. baumannii [1]; [11]
  Peptide MIC during treatment with antibiotic: 2 µg/mL
A. baumannii [1]; [12]
  Peptide MIC during treatment with antibiotic: 0 µg/mL
A. baumannii [1]; linezolid 32 μg/ml (Conc./MIC 1/8)
  Peptide MIC during treatment with antibiotic: 4 µg/mL
A. baumannii [1]; linezolid 64 μg/ml (Conc./MIC 1/4)
  Peptide MIC during treatment with antibiotic: 2 µg/mL
A. baumannii [1]; linezolid […] (Conc./MIC 1)
  Peptide MIC during treatment with antibiotic: 0 µg/mL
A. baumannii [1]; linezolid […] (Conc./MIC 1/2)
  Peptide MIC during treatment with antibiotic: 1 µg/mL
A. baumannii [1]; [13]
  Peptide MIC during treatment with antibiotic: 0.5 µg/mL
A. baumannii [1]; [14]
  Peptide MIC during treatment with antibiotic: 0 µg/mL
A. baumannii [1]; vancomycin […] (Conc./MIC 1/4)
  Peptide MIC during treatment with antibiotic: 1 µg/mL
A. baumannii [1]; vancomycin […] (Conc./MIC 1/8)
  Peptide MIC during treatment with antibiotic: 4 µg/mL
B. subtilis
  Minimal inhibitory concentration MIC: >128 µg/mL
MDRST 8009
  Minimal inhibitory concentration MIC: 64 µg/mL (≈ 26.9 µM)
A. baumannii [2]; A. baumannii and MDRAB 12035
  Synergistic effect of antibacterial activity with existing antibiotics compared with PapMA-1: level similar to that of PapMA-1 peptide
A. baumannii [2]; [15]
  Antibiotic MIC, Erythromycin: 32 µg/mL
  Antibiotic MIC, Linezolid: 128 µg/mL
  Antibiotic MIC, Vancomycin: >128 µg/mL
A. baumannii [2]; [16]
  Antibiotic MIC, Erythromycin: 16 µg/mL
  Antibiotic MIC, Linezolid: 64 µg/mL
  Antibiotic MIC, Vancomycin: >128 µg/mL
A. baumannii [2]; [17]
  Antibiotic MIC, Erythromycin: 8 µg/mL
  Antibiotic MIC, Linezolid: 16 µg/mL
  Antibiotic MIC, Vancomycin: 32 µg/mL
A. baumannii [2]; [18]
  Antibiotic MIC, Erythromycin: 4 µg/mL
  Antibiotic MIC, Linezolid: 8 µg/mL
  Antibiotic MIC, Vancomycin: 16 µg/mL
A. baumannii [2]; [19]
  Antibiotic MIC, Erythromycin: 0.5 µg/mL
  Antibiotic MIC, Linezolid: 4 µg/mL
  Antibiotic MIC, Vancomycin: 8 µg/mL
A. baumannii [2]; [20]
  Antibiotic MIC, Erythromycin: 0.25 µg/mL
  Antibiotic MIC, Linezolid: 4 µg/mL
  Antibiotic MIC, Vancomycin: 4 µg/mL
A. baumannii [2]; [21]
  Antibiotic MIC, Erythromycin: 0.125 µg/mL
  Antibiotic MIC, Linezolid: 2 µg/mL
  Antibiotic MIC, Vancomycin: 2 µg/mL
A. baumannii [2]; [22]
  Antibiotic MIC, Erythromycin: 0 µg/mL
  Antibiotic MIC, Linezolid: 0 µg/mL
  Antibiotic MIC, Vancomycin: 0 µg/mL
MDREC 1229 [3]
  Minimal inhibitory concentration MIC: 64 µg/mL (≈ 26.9 µM)
E. coli [4]
  Minimal inhibitory concentration MIC: 64 µg/mL (≈ 26.9 µM)
MDREC 1229 [5]; [23]
  Antibiotic MIC, Erythromycin: 128 µg/mL
  Antibiotic MIC, Linezolid: 128 µg/mL
  Antibiotic MIC, Vancomycin: >128 µg/mL
MDREC 1229 [5]; [24]
  Antibiotic MIC, Erythromycin: 64 µg/mL
  Antibiotic MIC, Linezolid: 128 µg/mL
  Antibiotic MIC, Vancomycin: >128 µg/mL
MDREC 1229 [5]; [25]
  Antibiotic MIC, Erythromycin: 16 µg/mL
  Antibiotic MIC, Linezolid: 64 µg/mL
  Antibiotic MIC, Vancomycin: >128 µg/mL
MDREC 1229 [5]; [26]
  Antibiotic MIC, Erythromycin: 8 µg/mL
  Antibiotic MIC, Linezolid: 32 µg/mL
  Antibiotic MIC, Vancomycin: >128 µg/mL
MDREC 1229 [5]; [27]
  Antibiotic MIC, Erythromycin: 4 µg/mL
  Antibiotic MIC, Linezolid: 32 µg/mL
  Antibiotic MIC, Vancomycin: 64 µg/mL
MDREC 1229 [5]; [28]
  Antibiotic MIC, Erythromycin: 1 µg/mL
  Antibiotic MIC, Linezolid: 16 µg/mL
  Antibiotic MIC, Vancomycin: 16 µg/mL
MDREC 1229 [5]; [29]
  Antibiotic MIC, Erythromycin: 0.25 µg/mL
  Antibiotic MIC, Linezolid: 4 µg/mL
  Antibiotic MIC, Vancomycin: 8 µg/mL
MDREC 1229 [5]; [30]
  Antibiotic MIC, Erythromycin: 0 µg/mL
  Antibiotic MIC, Linezolid: 0 µg/mL
  Antibiotic MIC, Vancomycin: 0 µg/mL
MDREC 1229 [6]; [31]
  Peptide MIC: 0 µg/mL
MDREC 1229 [6]; with Linezolid 512 μg/ml (Conc./MIC 1)
  Peptide MIC: 0 µg/mL
E. coli [7]; [31]
  Peptide MIC: 0 µg/mL
E. coli [7]; with Linezolid […] (Conc./MIC 1)
  Peptide MIC: 0 µg/mL
E. coli [7]; with Vancomycin 1024 μg/ml (Conc./MIC 1)
  Peptide MIC: 0 µg/mL
E. coli [8]; E. coli and MDREC1229
  Synergistic effect of antibacterial activity with existing antibiotics compared with PapMA-1: level similar to that of the PapMA-1 peptide
E. coli [8]; erythromycin combined with peptide at 1 μg/ml
  Antibiotic MIC, Erythromycin: 128 µg/mL
E. coli [8]; erythromycin combined with peptide at 2 μg/ml
  Antibiotic MIC, Erythromycin: 64 µg/mL
E. coli [8]; erythromycin combined with peptide at 4 μg/ml
  Antibiotic MIC, Erythromycin: 32 µg/mL
E. coli [8]; erythromycin combined with peptide at 6 μg/ml
  Antibiotic MIC, Erythromycin: 8 µg/mL
E. coli [8]; erythromycin combined with peptide at 8 μg/ml
  Antibiotic MIC, Erythromycin: 2 µg/mL
E. coli [8]; erythromycin combined with peptide at 16 μg/ml
  Antibiotic MIC, Erythromycin: 0.5 µg/mL
E. coli [8]; erythromycin combined with peptide at 32 μg/ml
  Antibiotic MIC, Erythromycin: 0.5 µg/mL
E. coli [8]; erythromycin combined with peptide at 64 μg/ml
  Antibiotic MIC, Erythromycin: 0 µg/mL
E. coli [8]; linezolid combined with peptide at 1 μg/ml
  Antibiotic MIC, Linezolid: >128 µg/mL
E. coli [8]; linezolid combined with peptide at 2 μg/ml
  Antibiotic MIC, Linezolid: 128 µg/mL
E. coli [8]; linezolid combined with peptide at 4 μg/ml
  Antibiotic MIC, Linezolid: 64 µg/mL
E. coli [8]; linezolid combined with peptide at 6 μg/ml
  Antibiotic MIC, Linezolid: 32 µg/mL
E. coli [8]; linezolid combined with peptide at 8 μg/ml
  Antibiotic MIC, Linezolid: 16 µg/mL
E. coli [8]; linezolid combined with peptide at 16 μg/ml
  Antibiotic MIC, Linezolid: 8 µg/mL
E. coli [8]; linezolid combined with peptide at 32 μg/ml
  Antibiotic MIC, Linezolid: 2 µg/mL
E. coli [8]; linezolid combined with peptide at 64 μg/ml
  Antibiotic MIC, Linezolid: 0 µg/mL
E. coli [8]; vancomycin combined with peptide at 1 μg/ml
  Antibiotic MIC, Vancomycin: >128 µg/mL
E. coli [8]; vancomycin combined with peptide at 2 μg/ml
  Antibiotic MIC, Vancomycin: >128 µg/mL
E. coli [8]; vancomycin combined with peptide at 4 μg/ml
  Antibiotic MIC, Vancomycin: 128 µg/mL
E. coli [8]; vancomycin combined with peptide at 6 μg/ml
  Antibiotic MIC, Vancomycin: 64 µg/mL
E. coli [8]; vancomycin combined with peptide at 8 μg/ml
  Antibiotic MIC, Vancomycin: 32 µg/mL
E. coli [8]; vancomycin combined with peptide at 16 μg/ml
  Antibiotic MIC, Vancomycin: 8 µg/mL
E. coli [8]; vancomycin combined with peptide at 32 μg/ml
  Antibiotic MIC, Vancomycin: 2 µg/mL
E. coli [8]; vancomycin combined with peptide at 64 μg/ml
  Antibiotic MIC, Vancomycin: 0 µg/mL
S. epidermidis
  Minimal inhibitory concentration MIC: >128 µg/mL
